{
  "source": "patent EP0606463B1",
  "about": "“NEUROMEDIN B RECEPTOR ANTAGONISTS” (The Administrators of The Tulane Educational Fund, priority 1992, dated 1994)",
  "key": {"[1]": {"target": "T1, rat NMB receptor (Rattus norvegicus, UniProt P24053)", "T1 construct": "a full length NMB-preferring bombesin receptor clone generated from rat esophagus; expressed in transfected cells; host or cells: BALB 3T3 cells", "T1 sequence (P24053 1-390)": "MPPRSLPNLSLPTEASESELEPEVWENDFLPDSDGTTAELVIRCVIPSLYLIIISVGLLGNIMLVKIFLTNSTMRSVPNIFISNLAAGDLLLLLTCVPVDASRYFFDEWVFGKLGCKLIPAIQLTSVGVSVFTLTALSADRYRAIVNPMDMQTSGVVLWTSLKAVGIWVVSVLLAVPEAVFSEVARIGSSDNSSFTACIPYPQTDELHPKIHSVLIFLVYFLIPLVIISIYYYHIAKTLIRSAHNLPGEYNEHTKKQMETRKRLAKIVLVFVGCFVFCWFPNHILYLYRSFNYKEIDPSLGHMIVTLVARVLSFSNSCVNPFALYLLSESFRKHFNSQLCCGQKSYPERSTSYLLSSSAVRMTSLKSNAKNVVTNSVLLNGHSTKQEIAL", "experiment": "Binding of 125I-[D-Tyr0]NMB to NMB-R transfected BALB 3T3 cells", "settings": "for fold greater affinity for the NMB than the GRP receptors: NMB-R transfected cells versus GRP receptors on rat pancreatic acini"}, "[2]": {"target": "T2, NMB receptors on C-6 glioblastoma cells (Rattus norvegicus, UniProt P24053)", "T2 construct": "endogenous in cells; host or cells: rat glioblastoma C-6 cells", "T2 sequence (P24053 1-390)": "T1 sequence (P24053 1-390)", "experiment": "NMB-stimulated [3H]IP in C-6 glioblastoma cells", "type": "cell-based", "protocol": "Total phosphoinositides in C-6 cells and in NMB-R transfected cells were determined as described previously, with minor modifications [Benya, R. V. et al. Mol. Pharmacol. 42:1058 (1992); and Wang, L-H. et al. Biochem. J. 286:641 (1992)]. Cells were grown to confluence in 24-well plates and then loaded with 100 µCi/ml myo-[2-^3H]inositol in Dulbecco's modified essential medium with 2% fetal bovine serum at 37°C for 48 hrs. Cells were washed and incubated in phosphoinositide buffer (standard buffer additionally containing 10 mM LiCl, 20 mM HEPES, 2 mM CaCl2, 2% BSA, and 1.2 mM MgSO4) for 15 min and then […] Reactions were halted using ice-cold 1% HCl in methanol, and the inositol phosphates (IP) were isolated as described previously [Bologna, M. et al. Cancer 63:1714 (1989); and Endo, T. et al. J. Endocrinol. 131:313 (1991)]. Briefly, after loading of the anion exchange column, free [^3H]glycerophosphorylinositol was removed by washing with 5 mM disodium tetraborate in 60 mM sodium formate. Total [^3H]inositol phosphates were then eluted using 100 mM formic acid in 1.0 M ammonium formate as described previously [Benya, R. V. et al. Mol. Pharmacol. 42:1058 (1992); and Wang, L-H. et al. Biochem. J. 286:641 (1992)]."}, "[3]": {"target": "T3, NMB receptors on rat olfactory bulb membranes (Rattus norvegicus, UniProt P24053)", "T3 construct": "Membranes were prepared from rat olfactory bulb (NMB membrane receptor assay); from tissue; host or cells: rat olfactory bulb membranes", "T3 sequence (P24053 1-390)": "T1 sequence (P24053 1-390)", "experiment": "NMB membrane receptor assay (rat olfactory bulb membranes)", "type": "binding"}, "[4]": {"target": "T4, CCKA receptors (Rattus norvegicus, UniProt P30551)", "T4 construct": "rat pancreas (CCKA receptor assay); from tissue; host or cells: rat pancreatic membranes", "T4 sequence (P30551 whole entry)": "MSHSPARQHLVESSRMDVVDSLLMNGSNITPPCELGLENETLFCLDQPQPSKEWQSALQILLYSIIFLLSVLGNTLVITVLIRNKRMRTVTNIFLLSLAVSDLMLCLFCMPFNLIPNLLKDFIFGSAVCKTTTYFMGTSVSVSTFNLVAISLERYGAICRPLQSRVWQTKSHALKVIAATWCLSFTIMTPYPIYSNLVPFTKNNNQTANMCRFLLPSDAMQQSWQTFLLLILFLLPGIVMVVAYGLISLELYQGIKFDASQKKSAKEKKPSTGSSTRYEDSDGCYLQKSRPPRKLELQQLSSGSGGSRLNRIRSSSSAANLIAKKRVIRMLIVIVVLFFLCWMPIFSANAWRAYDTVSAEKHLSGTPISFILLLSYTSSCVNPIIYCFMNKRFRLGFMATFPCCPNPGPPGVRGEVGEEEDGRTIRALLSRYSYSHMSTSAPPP", "experiment": "CCKA receptor assay (125I-CCK-8, rat pancreatic membranes)", "type": "binding", "settings": "at 1 µM"}, "[5]": {"system": "PYY receptor", "experiment": "PYY membrane receptor assay", "type": "binding, rat", "settings": "at 1 µM"}, "[6]": {"system": "benzodiazepine-neural", "experiment": "Neural benzodiazepine membrane receptor assay", "type": "binding, rat", "settings": "at 1 µM"}, "[7]": {"target": "T5, dopamine2 (Rattus norvegicus, UniProt P61169)", "T5 construct": "rat corpus striatum (dopamine1 and dopamine2 membrane receptor assays); from tissue; host or cells: rat corpus striatum membranes", "T5 sequence (P61169 whole entry)": "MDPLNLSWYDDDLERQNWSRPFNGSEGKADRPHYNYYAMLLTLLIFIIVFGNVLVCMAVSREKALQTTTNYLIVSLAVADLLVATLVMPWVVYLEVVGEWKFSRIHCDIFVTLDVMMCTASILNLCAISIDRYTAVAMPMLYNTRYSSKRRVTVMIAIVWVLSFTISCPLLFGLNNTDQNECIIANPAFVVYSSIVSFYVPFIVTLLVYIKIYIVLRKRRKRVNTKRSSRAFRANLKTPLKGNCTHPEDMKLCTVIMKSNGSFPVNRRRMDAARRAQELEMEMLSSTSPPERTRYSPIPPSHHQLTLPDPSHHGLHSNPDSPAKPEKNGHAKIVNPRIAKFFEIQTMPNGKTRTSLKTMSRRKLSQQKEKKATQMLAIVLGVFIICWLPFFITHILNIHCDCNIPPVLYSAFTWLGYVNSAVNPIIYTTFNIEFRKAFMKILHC", "experiment": "dopamine2 membrane receptor assay", "type": "binding", "settings": "at 1 µM"}},
  "note": "Where a SMILES comes first, the peptide text is derived from it. Bridges are numbered along the chain shown (N, C = ends). [ ]: non-standard residue; d: D form. 2Nal = N[C@@H](Cc1ccc2ccccc2c1)C(=O)O; d2Nal = N[C@H](Cc1ccc2ccccc2c1)C(=O)O",
  "data": [
    {"smiles": "CC(C)[C@@H]1NC(=O)[C@H](CCCCN)NC(=O)[C@@H](Cc2c[nH]c3ccccc23)NC(=O)[C@H](Cc2ccc(O)cc2)NC(=O)[C@@H](NC(=O)[C@H](N)Cc2ccc3ccccc3c2)CSSC[C@@H](C(=O)N[C@@H](Cc2ccc3ccccc3c2)C(N)=O)NC1=O", "note": "[Analog #1, D-Nal-Cys-Tyr-D-Trp-Lys-Val-Cys-Nal-NH2] (H-[d2Nal]CY[dW]KVC[2Nal]-NH2; disulfide 2-7; N-terminus assumed)", "values": [
      {"measurement": "complete inhibition of binding of ^125I-[Tyr^0]NMB at", "setting": "[1]; NMB-R transfected cells", "result": 3, "unit": "µM"},
      {"measurement": "fold greater affinity for the NMB than the GRP receptors", "setting": "[1]", "result": 84, "unit": "fold"},
      {"measurement": "fold greater affinity for the NMB than the GRP receptors", "setting": "[1]; listed as cyclo SS-octa", "result": 100, "unit": "fold"},
      {"measurement": "detectible inhibition of binding of ^125I-[Tyr^0]NMB at", "setting": "[1]; NMB-R transfected cells, lowest concentration with detectable inhibition", "result": 0.1, "unit": "µM"},
      {"measurement": "[^3H]IP, Peptide Added NMB (10 nM)", "setting": "[2]; C-6 glioblastoma cells, analog 10 µM plus NMB 10 nM", "result": "7.5 ± 1.0", "unit": "dpm x 10^3"},
      {"measurement": "[^3H]IP, Peptide Added None", "setting": "[2]; C-6 glioblastoma cells, analog 10 µM, no agonist, control 7.2±1.0", "result": "7.4 ± 1.3", "unit": "dpm x 10^3"},
      {"measurement": "effect on NMB-stimulated increases in [^3H]IP in C-6 glioblastoma cells", "setting": "[2]; Table 3", "result": "inhibited"},
      {"measurement": "inhibition at 1 µM", "setting": "[3]; at 1 µM, read-out: inhibition of binding to NMB receptors on rat olfactory bulb membranes", "result": "> 95", "unit": "%"},
      {"measurement": "fold greater affinity for NMB receptors than mu opioid receptors", "setting": "[3]; rat olfactory bulb versus rat forebrain membranes (Table 4)", "result": 10, "unit": "fold"},
      {"measurement": "inhibition of binding to CCKA", "setting": "[4]", "result": "did not inhibit binding"},
      {"measurement": "inhibition of binding to PYY", "setting": "[5]", "result": "did not inhibit binding"},
      {"measurement": "inhibition of binding to benzodiazepine-neural", "setting": "[6]", "result": "did not inhibit binding"},
      {"measurement": "inhibition of binding to dopamine2", "setting": "[7]", "result": "did not inhibit binding"}
    ]}
  ]
}
